Results: patent publication EP2582674B1 (Cymabay Therapeutics, Inc., priority 2010, dated 2011)

These compounds were tested against T1, human GPR120 (Homo sapiens, UniProt Q5NUL3) (assay: Intracellular Ca2+ assay in human GPR120 stable cell line (FLIPR Calcium 4 dye, Flexstation)). Conditions: HEK293, % activity at 2.5 µM compared to the maximal activity of the compound of Example 25 at 2.5 µM (=100%); HEK293 cells co-expressing Gqi5; read-out: % Activity (Ex. 25 Reference Compound).
T1 construct: host or cells: HEK293 cells co-expressing Gqi5
T1 sequence (Q5NUL3 1-361): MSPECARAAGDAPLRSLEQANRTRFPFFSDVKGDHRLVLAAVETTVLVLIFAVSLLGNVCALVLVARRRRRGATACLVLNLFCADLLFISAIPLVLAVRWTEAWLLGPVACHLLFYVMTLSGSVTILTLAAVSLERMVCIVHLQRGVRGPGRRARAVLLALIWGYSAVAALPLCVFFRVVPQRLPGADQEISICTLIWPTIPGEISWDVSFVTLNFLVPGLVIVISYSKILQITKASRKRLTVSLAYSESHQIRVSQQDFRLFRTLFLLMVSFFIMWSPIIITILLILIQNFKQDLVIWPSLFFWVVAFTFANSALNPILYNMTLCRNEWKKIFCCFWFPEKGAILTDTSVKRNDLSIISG
Assay type: cell-based

Row | Compound | activity at 2.5 µM
1 | CC(Cc1cc(F)c(OCc2cc(Cl)cc3c2OC(C)C3(C)C)c(F)c1)C(=O)O (stereo not shown) [Example 109, 3-(4-((5-chloro-2,3,3-trimethyl-2,3-dihydrobenzofuran-7-yl)methoxy)-3,5-difluorophenyl)-2-methylpropanoic acid] | 72.4%
2 | CC(Cc1ccc(OCc2cc(Cl)cc3c2OC(C)(C)C3=O)c(C(F)(F)F)c1)C(=O)O (stereo not shown) [Example 79, 3-(4-((5-chloro-2,2-dimethyl-3-oxo-2,3-dihydrobenzofuran-7-yl)methoxy)-3-(trifluoromethyl)phenyl)-2-methylpropanoic acid] | 3.85%
3 | CC1(C)Cc2c(COc3ccc4c(c3)CCC4CC(=O)O)ccc(F)c2O1 (stereo not shown) [Example 94, 2-(5-((7-fluoro-2,2-dimethyl-2,3-dihydrobenzofuran-4-yl)methoxy)-2,3-dihydro-1H-inden-1-yl)acetic acid] | 98.5%
4 | COc1cccc(-c2cc(COc3ccc(CC(C)C(=O)O)cc3)c3c(c2)CC(C)(C)O3)c1 (stereo not shown) [Example 86, 3-(4-((5-(3-methoxyphenyl)-2,2-dimethyl-2,3-dihydrobenzofuran-7-yl)methoxy)phenyl)-2-methylpropanoic acid] | 5.23%
5 | CC(Cc1ccc(COc2cccc3c2OC(C)(C)C3)c(F)c1)C(=O)O (stereo not shown) [Example 44, 3-(4-(((2,2-dimethyl-2,3-dihydrobenzofuran-7-yl)oxy)methyl)-3-fluorophenyl)-2-methylpropanoic acid] | 157%
6 | CC1(C)Cc2cc(Cl)cc(COc3ccc(CCC(=O)O)c(F)c3)c2O1 [Example 53, 3-(4-((5-chloro-2,2-dimethyl-2,3-dihydrobenzofuran-7-yl)methoxy)-2-fluorophenyl)-propanoic acid] | 143%
7 | CC1(C)Cc2cc(Cl)cc(COc3ccc(CCC(=O)O)c(-c4ccccc4)c3)c2O1 [Example 71, 3-(5-((5-chloro-2,2-dimethyl-2,3-dihydrobenzofuran-7-yl)methoxy)-[1,1'-biphenyl]-2-yl)propanoic acid] | 134%
8 | CC(Cc1ccc(NC(=O)c2cc(F)cc3c2OC(C)(C)C3)cc1)C(=O)O (stereo not shown) [Example 68, 3-(4-(5-fluoro-2,2-dimethyl-2,3-dihydrobenzofuran-7-carboxamido)phenyl)-2-methylpropanoic acid] | 69%
9 | CC(Cc1ccc(OCc2cc(Cl)cc3c2OC(C)(C)C3)c(CN(C)C)c1)C(=O)O (stereo not shown) [Example 88, 3-(4-((5-chloro-2,2-dimethyl-2,3-dihydrobenzofuran-7-yl)methoxy)-3-((dimethylamino)methyl)phenyl)-2-methylpropanoic acid] | 119%

The remaining lines, values ahead:

Row | activity at 2.5 µM | Compound
10 | 151% | CCc1cc(OCc2cc(F)cc3c2OC(C)(C)C3)ccc1CCC(=O)O [Example 134, 3-(2-ethyl-4-((5-fluoro-2,2-dimethyl-2,3-dihydrobenzofuran-7-yl)methoxy)phenyl)propanoic acid]
11 | 3.58% | CN(C)Cc1cc(OCc2cc(F)cc3c2OC(C)(C)C3)ccc1CCC(=O)O [Example 122, 3-(2-((dimethylamino)methyl)-4-((5-fluoro-2,2-dimethyl-2,3-dihydrobenzofuran-7-yl)methoxy)phenyl)propanoic acid]
12 | 149% | CC1(C)Cc2cc(Cl)cc(COc3ccc(C(C)(C)CC(=O)O)cc3)c2O1 [Example 156, 3-(4-((5-chloro-2,2-dimethyl-2,3-dihydrobenzofuran-7-yl)methoxy)phenyl)-3-methylbutanoic acid]
13 | 132% | CC(Cc1ccc(OCc2cc(OC(F)(F)F)cc3c2OC(C)(C)C3)cc1)C(=O)O (stereo not shown) [Example 124, 3-(4-((2,2-dimethyl-5-(trifluoromethoxy)-2,3-dihydrobenzofuran-7-yl)methoxy)phenyl)-2-methylpropanoic acid]
14 | 116% | CCc1cc(OCc2cc(F)cc3c2OC(C)(C)C3)c(F)cc1CCC(=O)O [Example 220, 3-(2-ethyl-5-fluoro-4-((5-fluoro-2,2-dimethyl-2,3-dihydrobenzofuran-7-yl)methoxy)phenyl)propanoic acid]
15 | 144% | [2H]C1([2H])c2cc(F)cc(COc3ccc(CC(C)C(=O)O)cc3)c2OC1(C)C (stereo not shown) [Example 145, 3-(4-((3,3-dideuterio-5-fluoro-2,2-dimethyl-2,3-dihydrobenzofuran-7-yl)methoxy)phenyl)-2-methylpropanoic acid]
16 | 47% | CC(=O)NCCOC(=O)C(C)Cc1ccc(OCc2cc(Cl)cc3c2OC(C)(C)C3)c(C(F)(F)F)c1 (stereo not shown) [Example 126, 2-acetamidoethyl 3-(4-((5-chloro-2,2-dimethyl-2,3-dihydrobenzofuran-7-yl)methoxy)-3-(trifluoromethyl)phenyl)-2-methylpropanoate]
17 | 98.4% | CC(CC(=O)O)Cc1ccc(OCc2cc(F)cc3c2OC(C)(C)C3)cc1 (stereo not shown) [Example 182, 4-(4-((5-fluoro-2,2-dimethyl-2,3-dihydrobenzofuran-7-yl)methoxy)phenyl)-3-methylbutanoic acid]
18 | 151% | CC1(C)Cc2cc(F)cc(COc3cc(Cl)c(CCC(=O)O)c(Cl)c3)c2O1 [Example 197, 3-(2,6-dichloro-4-((5-fluoro-2,2-dimethyl-2,3-dihydrobenzofuran-7-yl)methoxy)phenyl)propanoic acid]
19 | 109% | Cc1nc2cccc(COc3c(F)cc(CC(C)C(=O)O)cc3F)c2o1 (stereo not shown) [Example 261, 3-(3,5-difluoro-4-((2-methylbenzo[d]oxazol-7-yl)methoxy)phenyl)-2-methylpropanoic acid]
20 | 141% | [2H]C1([2H])c2cc(Cl)cc(COc3ccc(CC(C)C(=O)O)cc3F)c2OC1(C)C (stereo not shown) [Example 146, 3-(4-((3,3-dideuterio-5-chloro-2,2-dimethyl-2,3-dihydrobenzofuran-7-yl)methoxy)-3-fluorophenyl)-2-methylpropanoic acid]

Same assay, conditions: HEK293, % activity at 5 µM compared to the maximal activity of GW9508 at 6.7 µM (=100%); HEK293 cells co-expressing Gqi5; read-out: %Activity (GW9508 Reference Compound)

Row | activity at 5 µM | Compound
21 | 113% | CC(Cc1cc(F)c(OCc2cccc3c2CC(C)(C)O3)c(F)c1)C(=O)O (stereo not shown) [Example 21, 3-(4-((2,2-dimethyl-2,3-dihydrobenzofuran-4-yl)methoxy)-3,5-difluorophenyl)-2-methylpropanoic acid]
22 | 126% | CC1(C)Cc2c(COc3c(F)cc(C4CC4C(=O)O)cc3F)cccc2O1 (stereo not shown) [Example 22, 2-(4-((2,2-dimethyl-2,3-dihydrobenzofuran-4-yl)methoxy)-3,5-difluorophenyl) cyclopropanecarboxylic acid]
23 | 100% | CC1(C)Cc2cccc(COc3c(F)cc(C4CC4C(=O)O)cc3F)c2O1 (stereo not shown) [Example 24, 2-(4-((2,2-dimethyl-2,3-dihydrobenzofuran-7-yl)methoxy)-3,5-difluorophenyl) cyclopropanecarboxylic acid]

Same assay, conditions: eight concentrations from 0.00001 to 20 µM; changes (Max-Min) of fluorescence intensity

Row | EC50 | Compound
24 | ≤ 1 µM | CC(Cc1ccc(OCc2cc(OC(F)(F)F)cc3c2OC(C)(C)C3)cc1)C(=O)O (stereo not shown) [Example 124, 3-(4-((2,2-dimethyl-5-(trifluoromethoxy)-2,3-dihydrobenzofuran-7-yl)methoxy)phenyl)-2-methylpropanoic acid]
25 | 1 to 10 µM | CC(Cc1ccc(COc2cccc3c2OC(C)(C)C3)c(F)c1)C(=O)O (stereo not shown) [Example 44, 3-(4-(((2,2-dimethyl-2,3-dihydrobenzofuran-7-yl)oxy)methyl)-3-fluorophenyl)-2-methylpropanoic acid]

Each compound was assayed on C57BL/6J mice (assay: Intra peritoneal glucose tolerance test (IPGTT)). Conditions: Mus musculus, 2 h; 30 mg/kg oral gavage 30 min before 2g/kg glucose intra peritoneally; overnight fasted male C57BL/6J mice; incremental AUC of glucose excursion vs vehicle; read-out: % reduction IPGTT at 30mg/kg.
Assay type: in vivo
Description: 8-10 week old male C57BL/6J mice (Harlan) were maintained on regular chow diet from Harlan (2018 Teklad Global). On the day before the experiment mice were fasted overnight, then randomized into groups (n=10-15) to receive the tested GPR120 agonist at doses ranging from 100mg/kg or the vehicle (1% CMC, 2% TWEEN 80). Compounds were delivered orally via gavage at 10mL/kg. Blood glucose levels were measured by glucometer (Ascensia Elite XL, Bayer) at time -30 minutes before administration of compound. Blood glucose was measured again after 30 minutes (at time 0), and then the mice were dosed intra peritoneally with 2g/kg glucose at 10mL/kg. Blood glucose measurements were taken 20, 40, 60, 90 and 120 minutes after glucose administration, by glucometer (Ascensia Elite XL, Bayer).
Glucose levels were plotted against time, and the incremental area under the curve (AUC) of the glucose excursion was determined from time 0 using Graphpad Prism 5.01. Outliers were excluded using Tukey's box plot outlier test, and statistical significance of differences in AUC of compound treatment compared to vehicle was determined by non-parametric Kruskal-Wallis test with Dunn's post test.
The compounds were tested at 30 mg/kg and the levels of blood glucose were determined in the presence and absence of the tested compounds. The percentage of glucose reduction is reported. The tested compounds were selected as Examples from the exemplified compounds. […]

Row | Compound | inhibition in vivo at 30 mg/kg
26 | CC1(C)Cc2cc(F)cc(COc3ccc(CCC(=O)O)cc3)c2O1 [Example 132, 3-(4-((5-fluoro-2,2-dimethyl-2,3-dihydrobenzofuran-7-yl)methoxy)phenyl)propanoic acid] | 6.5%
27 | CCc1cc(OCc2cc(F)cc3c2OC(C)(C)C3)ccc1CCC(=O)O [Example 134, 3-(2-ethyl-4-((5-fluoro-2,2-dimethyl-2,3-dihydrobenzofuran-7-yl)methoxy)phenyl)propanoic acid] | 30.2%
28 | CC1(C)Cc2cc(F)cc(COc3ccc(C4CC4C(=O)O)cc3)c2O1 (racemic) [Example 131 (racemic), 2-(4-((5-fluoro-2,2-dimethyl-2,3-dihydrobenzofuran-7-yl)methoxy)phenyl) cyclopropanecarboxylic acid] | 23.1%
29 | CCOc1cc(OCc2cc(F)cc3c2OC(C)(C)C3)ccc1CCC(=O)O [Example 268, 3-(2-ethoxy-4-((5-fluoro-2,2-dimethyl-2,3-dihydrobenzofuran-7-yl)methoxy)phenyl)propanoic acid] | 23%
30 | C[C@@H](Cc1ccc(OCc2cc(Cl)cc3c2OC(C)(C)C3)c(F)c1)C(=O)O [Example 142, (S)-3-(4-((5-chloro-2,2-dimethyl-2,3-dihydrobenzofuran-7-yl)methoxy)-3-fluorophenyl)-2-methylpropanoic acid] | 36.2%
31 | CC1(C)Cc2cc(Cl)cc(COc3ccc(CCC(=O)O)c4c3CCC4)c2O1 [Example 64, 3-(7-((5-chloro-2,2-dimethyl-2,3-dihydrobenzofuran-7-yl)methoxy)-2,3-dihydro-1H-inden-4-yl)propanoic acid] | 24.9%
